Measured values: patent US8580829B2 (Boehringer Ingelheim International GmbH, priority 2010, dated 2013)
pIC50: −log10 of the molar value. Where two headings read alike, the source gives them in different places.

Experiments:
[1] = tested on: synthesis of LTB4 in human whole blood; assay: human whole blood LTB4 production inhibition assay; format: cell-based; conditions: heparinized human whole blood, calcimycin 20 μM, read-out: hWB LTB4 IC50
Procedure, shortened: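 LTB4 levels in plasma were measured by antibody-based HTRF after heparinized human whole blood, pretreated with compound (15 min, 37° C), was challenged with 20 μM calcimycin for 30 min at 37° C.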

[2] = molecular target: T1, recombinant human FLAP protein (Homo sapiens, UniProt P20292); assay: FLAP binding assay (Scintillation Proximity Assay, displacement of [125I]L-691,831); conditions: recombinant human FLAP membranes, [125I]L-691,831 probe; read-out: FLAP SPA IC50
T1 construct: made in house; host or cells: Sf9 insect cells (100,000 x g membrane fraction)
T1 sequence (P20292 1-161): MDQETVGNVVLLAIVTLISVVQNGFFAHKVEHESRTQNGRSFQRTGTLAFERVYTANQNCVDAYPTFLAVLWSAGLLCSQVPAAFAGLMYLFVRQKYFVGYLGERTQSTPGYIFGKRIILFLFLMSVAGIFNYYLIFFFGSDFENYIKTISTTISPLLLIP
Procedure, shortened: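 Membranes came from Sf9 insect cells expressing recombinant human FLAP, collected as the 100,000×g pellet in Tris pH 7.5/MgCl2/EDTA buffer. 5 μg membrane protein was coupled to WGA SPA beads for 1 h.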

Row | pIC50 ([1]; Homo sapiens) | pIC50 [2] | pIC50 [1] | SMILES
1 |  | 8.37 | 7.42 | CCN(C)C(=O)Cn1cc(-c2nc(C3(c4ccc(-c5cnc(N)nc5)cc4)CCC3)no2)cn1 [Example 206, 2-[4-(3-{1-[4-(2-Amino-pyrimidin-5-yl)-phenyl]-cyclobutyl}-[1,2,4]oxadiazol-5-yl)-pyrazol-1-yl]-N-ethyl-N-methyl-acetamide]
2 | 7.38 | 9.00 |  | CCOC(=O)CNc1cnc(-c2nc(C3(c4ccc(-c5cnc(N)nc5)cc4)CCC3)no2)cn1 [Example 199, [5-(3-{1-[4-(2-Amino-pyrimidin-5-yl)-phenyl]-cyclobutyl}-1,2,4-oxadiazol-5-yl)-pyrazin-2-ylamino]-acetic acid ethyl ester]
3 |  | 8.30 | 6.32 | COC(=O)[C@H]1CN(c2cnc(-c3nc(C4(c5ccc(-c6cnc(N)nc6)cc5)CCC4)no3)cn2)CCN1 [Example 308, (R)-5′-(3-{1-[4-(2-Amino-pyrimidin-5-yl)-phenyl]-cyclobutyl}-1,2,4-oxadiazol-5-yl)-3,4,5,6-tetrahydro-2H-1,2′-bipyrazinyl-3-carboxylic acid methyl ester]
4 | 6.29 | 8.28 |  | COc1cc(-c2nc(C3(c4ccc(-c5cnc(N)nc5)cc4)CCC3)no2)ccn1 [Example 174, 5-(4-{1-[5-(2-Methoxy-pyridin-4-yl)-1,2,4-oxadiazol-3-yl]-cyclobutyl}-phenyl)-pyrimidin-2-ylamine]
5 | 6.96 | 9.07 |  | CNC(=O)n1cc(-c2nc(C3(c4ccc(-c5cnc(N)nc5)cc4)CCC3)no2)cn1 [Example 213, 4-(3-{1-[4-(2-Amino-pyrimidin-5-yl)-phenyl]-cyclobutyl}-[1,2,4]oxadiazol-5-yl)-pyrazole-1-carboxylic acid methylamide]
6 | 5.55 | 6.59 |  | Nc1ncc(-c2ccc(C3(c4noc(Cn5ccnc5)n4)CCC3)cc2)cn1 [Example 277, 5-{4-[1-(5-Imidazol-1-ylmethyl-[1,2,4]oxadiazol-3-yl)-cyclobutyl]-phenyl}-pyrimidin-2-ylamine]
7 | 6.62 | 8.59 |  | NCCn1cc(-c2nc(C3(c4ccc(-c5cnc(N)nc5)cc4)CCC3)no2)cn1 [Example 227, 5-[4-(1-{5-[1-(2-Amino-ethyl)-1H-pyrazol-4-yl]-[1,2,4]oxadiazol-3-yl}-cyclobutyl)-phenyl]-pyrimidin-2-ylamine]
8 | 7.24 | 8.70 |  | COCCN(C)c1cnc(-c2nc(C3(c4ccc(-c5cnc(N)nc5)cc4)CCC3)no2)cn1 [Example 198, 5-{4-[1-(5-{5-[(2-Methoxy-ethyl)-methyl-amino]-pyrazin-2-yl}-1,2,4-oxadiazol-3-yl)-cyclobutyl]-phenyl}-pyrimidin-2-ylamine]
9 | 6.39 | 8.25 |  | Cn1cncc1-c1nc(C2(c3ccc(-c4cnc(N)nc4)cc3)CCC2)no1 [Example 176, 5-(4-{1-[5-(3-Methyl-3H-imidazol-4-yl)-1,2,4-oxadiazol-3-yl]-cyclobutyl}-phenyl)-pyrimidin-2-ylamine]
10 | 6.85 | 8.51 |  | CN1CCN(C(=O)Cn2cc(-c3nc(C4(c5ccc(-c6cnc(N)nc6)cc5)CCC4)no3)cn2)CC1 [Example 219, 2-[4-(3-{1-[4-(2-Amino-pyrimidin-5-yl)-phenyl]-cyclobutyl}-[1,2,4]oxadiazol-5-yl)-pyrazol-1-yl]-1-(4-methyl-piperazin-1-yl)-ethanone]
11 | 7.66 | 8.66 |  | Nc1ncc(-c2ccc(C3(c4noc(-c5cnn(C(=O)N6CCOCC6)c5)n4)CCC3)cc2)cn1 [Example 212, [4-(3-{1-[4-(2-Amino-pyrimidin-5-yl)-phenyl]-cyclobutyl}-[1,2,4]oxadiazol-5-yl)-pyrazol-1-yl]-morpholin-4-yl-methanone]
12 | 6.96 | 8.34 |  | COC1CCN(C(=O)Cn2cc(-c3nc(C4(c5ccc(-c6cnc(N)nc6)cc5)CCC4)no3)cn2)C1 (stereo not shown) [Example 210, 2-[4-(3-{1-[4-(2-Amino-pyrimidin-5-yl)-phenyl]-cyclobutyl}-[1,2,4]oxadiazol-5-yl)-pyrazol-1-yl]-1-(3-methoxy-pyrrolidin-1-yl)-ethanone]

The remaining lines, values behind:

Row | SMILES | pIC50 ([1]; Homo sapiens) | pIC50 [2] | pIC50 [1]
13 | Nc1ncc(-c2ccc(C3(c4noc(N5CCCC5=O)n4)CCC3)cc2)cn1 [Example 26, 1-(3-{1-[4-(2-Amino-pyrimidin-5-yl)-phenyl]-cyclobutyl}-1,2,4-oxadiazol-5-yl)-pyrrolidin-2-one] | 5.80 | 6.80 | 
14 | Nc1ncc(-c2ccc(C3(c4noc(-c5ccc(N6CCNCC6)nc5)n4)CCC3)cc2)cn1 [Example 116, 5-(4-{1-[5-(6-piperazin-1-yl-pyridin-3-yl)-1,2,4-oxadiazol-3-yl]-cyclobutyl}-phenyl)-pyrimidin-2-ylamine] | 6.82 | 8.74 | 
15 | CCn1ncc(-c2nc(C3(c4ccc(-c5cnc(N)nc5)cc4)CCC3)no2)c1C [Example 2, 5-(4-{1-[5-(1-ethyl-5-methyl-1H-pyrazol-4-yl)-1,2,4-oxadiazol-3-yl]-cyclobutyl}-phenyl)-pyrimidin-2-ylamine] | 7.00 | 8.66 | 
16 | Cc1cc(-c2nc(C3(c4ccc(-c5cnc(N)nc5)cc4)CCC3)no2)on1 [Example 157] | 6.16 | 8.39 | 
17 | CCN(C)C(=O)Cn1cc(-c2nc(C3(c4ccc(-c5cnc(N)nc5)cc4)CCC3)no2)cn1 [Example 138, 2-[4-(3-{1-[4-(2-Amino-pyrimidin-5-yl)-phenyl]-cyclobutyl}-1,2,4-oxadiazol-5-yl)-pyrazol-1-yl]-N-ethyl-N-methyl-acetamide] | 7.42 | 8.55 | 
18 | COCCNc1cc(-c2nc(C3(c4ccc(-c5cnc(N)nc5)cc4)CCC3)no2)ccn1 [Example 97, 5-[4-(1-{5-[2-(2-Methoxy-ethylamino)-pyridin-4-yl]-1,2,4-oxadiazol-3-yl}-cyclobutyl)-phenyl]-pyrimidin-2-ylamine] | 7.04 | 8.54 | 
19 | CC(O)Cn1cc(-c2nc(C3(c4ccc(-c5cnc(N)nc5)cc4)CCC3)no2)cn1 (stereo not shown) [Example 83, 1-[4-(3-{1-[4-(2-Amino-pyrimidin-5-yl)-phenyl]-cyclobutyl}-1,2,4-oxadiazol-5-yl)-pyrazol-1-yl]-propan-2-ol] | 6.96 | 8.40 | 
20 | Cn1cccc(-c2nc(C3(c4ccc(-c5cnc(N)nc5)cc4)CCC3)no2)c1=O [Example 32, 3-(3-{1-[4-(2-Amino-pyrimidin-5-yl)-phenyl]-cyclobutyl}-1,2,4-oxadiazol-5-yl)-1-methyl-1Hpyridin-2-one] | 7.11 | 8.34 | 
21 | Cc1cc(-c2nc(C3(c4ccc(-c5cnc(N)nc5)cc4)CCC3)no2)[nH]n1 [Example 5, 5-(4-{1-[5-(5-Methyl-2H-pyrazol-3-yl)-1,2,4-oxadiazol-3-yl]-cyclobutyl}-phenyl)-pyrimdin-2-ylamine] | < 5.30 | 8.62 | 
22 | CN(CCO)c1cnc(-c2nc(C3(c4ccc(-c5cnc(N)nc5)cc4)CCC3)no2)cn1 [Example 61, 2-{[5-(3-{1-[4-(2-amino-pyrimidin-5-yl)-phenyl]-cyclobutyl}-1,2,4-oxadiazol-5-yl)-pyrazin-2-yl]-methyl-amino}-ethanol] | 7.28 | 8.82 | 
23 | Nc1ncc(-c2ccc(C3(c4noc(-c5ccc(C(=O)N6CC(O)C6)nc5)n4)CCC3)cc2)cn1 [Example 64, [5-(3-{1-[4-(2-Amino-pyrimidin-5-yl)-phenyl]-cyclobutyl}-1,2,4-oxadiazol-5-yl)-pyridin-2-yl]-(3-hydroxy-azetidin-1-yl)-methanone] | 6.51 | 8.11 | 
24 | CS(=O)(=O)Nc1nc(C2(c3ccc(-c4cnc(N)nc4)cc3)CCC2)no1 [Example 27, N-(3-{1-[4-(2-Amino-pyrimidin-5-yl)-phenyl]-cyclobutyl}-1,2,4-oxadiazol-5-yl)-methanesulfonamide] | < 5.30 | 6.47 | 
25 | COC(=O)C(C)(C)Nc1cnc(-c2nc(C3(c4ccc(-c5cnc(N)nc5)cc4)CCC3)no2)cn1 [Example 90, 2-[5-(3-{1-[4-(2-Amino-pyrimidin-5-yl)-phenyl]-cyclobutyl}-1,2,4-oxadiazol-5-yl)-pyrazin-2-ylamino]-2-methyl-propionic acid methyl ester] | 6.68 | 8.47 | 
26 | CCn1cccc(-c2nc(C3(c4ccc(-c5cnc(N)nc5)cc4)CCC3)no2)c1=O [Example 65, 3-(3-{1-[4-(2-Amino-pyrimidin-5-yl)-phenyl]-cyclobutyl}-1,2,4-oxadiazol-5-yl)-1-ethyl-1H-pyridin-2-one] | 7.01 | 8.23 | 
27 | CC(C)(O)CNc1cnc(-c2nc(C3(c4ccc(-c5cnc(N)nc5)cc4)CCC3)no2)cn1 [Example 120, 1-[5-(3-{1-[4-(2-Amino-pyrimidin-5-yl)-phenyl]-cyclobutyl}-1,2,4-oxadiazol-5-yl)-pyrazin-2-ylamino]-2-methyl-propan-2-ol] | 6.13 | 8.04 | 
28 | Nc1ncc(-c2ccc(C3(c4noc(-c5cccnc5N)n4)CCC3)cc2)cn1 [Example 4, 5-(4-{1-[5-(2-Amino-pyridin-3-yl)-1,2,4-oxadiazol-3-yl]-cyclobutyl}-phenyl)-pyrimidin-2-ylamine] | 6.14 | 8.34 | 
29 | Nc1ncc(-c2ccc(C3(c4noc(-c5ccnnc5)n4)CCC3)cc2)cn1 [Example 160, 5-{4-[1-(5-Pyridazin-4-yl-1,2,4-oxadiazol-3-yl)-cyclobutyl]-phenyl}-pyrimidin-2-ylamine] | 6.62 | 8.21 | 
